Consider one molecule from patent US11246896B2, “Tumor-specific adenovirus vectors and therapeutic uses” (priority 2015, dated 2022).

This series concerns RIN, MIN, β-TC1 (INSM1+ insulinomas). Briefly: Cell survival assay (MTS), INSM1-positive insulinoma cells. It counts as cell-based, rat, mouse. The note with it: 200 μM GCV, no virus, RTC-1 cells. How it is done:
FIGS. 13A-13D illustrate that the oncolytic virus in combination with Ad-INSM1p-HSV-tk increased efficacy of tumor cell killing. An MTS colorimetric assay was conducted to measure the cell survival with 3 insulinoma cell lines: RIN, MIN, β-TC1 (INSM1^+ insulinomas), and Panc-1 (INSM1^− pancreatic epithelioid carcinoma).
FIG. 13D is a graph illustrating cells treated with a combination of Ad-IMSM1p-HSV-tk and Ad-INSM1p-E1A-HSV-tk viruses. Cells were first treated with virus ranging from 0-100 MOI. […] Cell survival was measured by MTS colorimetric analysis at 490 nm. (n=6). […]
FIG. 14D is a graph illustrating cells treated with a combination of Ad-IMSM1p-HSV-tk and Ad-INSM1p-E1A-HSV-tk viruses. […] Cell survival was measured by MTS colorimetric analysis at 490 nm. […]
Cell survival assay. […] Afterwards, cell survival was assessed using […] 96® AQueous One Solution Cell Proliferation Assay (Promega, cat. no. G3582) and read at 490 nm on a Bio-Tek Synergy-HT Microplate Reader. Results were plotted as relative absorbance (relative to control sample with no virus) against increasing viral MOI. Samples were conducted in six wells each and statistical significance was determined using the students T-test with a threshold of p<0.05.
For a second experiment, the same viral constructs were used to infect cancer cells at a constant 50 MOI. […] After the treatment period, cell survival was assessed using […] […]

On to `Nc1nc(O)c2ncn(COC(CO)CO)c2n1` [GCV, 2-amino-9-{[(1,3-dihydroxypropan-2-yl)oxy]methyl}-6,9-dihydro-3H-purin-6-one], for which the “cell survival with GCV in the absence of adenovirus” value is reported as “decrease in survival”.
